Source: patent US20180133212A1, “COMBINATION OF A BCL-2 INHIBITOR AND A BROMODOMAIN INHIBITOR FOR TREATING CANCER” (Gilead Sciences, Inc., priority 2016, published 2018)
pEC50: −log10 of the molar value. “And” between values parts separate entries of the source, which are not always exact repeats. Equal values may be shown once. Read-outs that look alike come from different tables or passages of the source.

What was measured:
[1] = Clinically relevant exposures (clinical plasma exposure, protein adjusted); format: in vivo
Method: (§1) Clinically relevant doses of Compound A were calculated.
A set of data was selected from the synergy screening to represent clinically relevant concentration ranges of venetoclax and Compound A. […] Cmin and Ctrough of Compound A were similarly adjusted.

[2] = Protein shift: free fraction in human plasma / cell culture media; format: in vitro ADME
Method: as §1
A set of data was selected from the synergy screening to represent clinically relevant concentration ranges of venetoclax and Compound A. The average concentration of venetoclax (Cav) was estimated at the 400 mg dose adjusted for protein binding using empirically determined free fraction in human plasma/cell culture media. Cmin and Ctrough of Compound A were similarly adjusted.

[3] = ABT-199, 400 mg dose, Phase I NHL study; cited from earlier work
DLBCL cell lines = assay: Single agent cell growth assessment (Cell Titer Glo); format: cell-based; details: Homo sapiens, 96 h, CTG, three or four days
Method: Compound A was serially diluted by three-fold in 100% DMSO in a 96 well plate format in duplicate dose curves to achieve a dose range of 10 mM to […] as a 1000× stock. Serially-diluted 1000× Compound A was then further diluted 1:100 in RPMI-1640 without additives to generate a 10× stock and finally diluted 1:10 into assay plate wells containing 100 μL of cells. The final concentration of DMSO was 0.1% in 111 μL of final volume in the assay wells and the dose range of Compound A was 10 μM to 0.5 nM. […] Cell viability was assessed using Cell Titer Glo (CTG, Promega, Madison, Wis.) following the manufacturer's protocol. Luminescence was measured on an EnSpire Multimode Plate Reader (Perkin Elmer, Waltham, Mass., Model 2300-001M).
A replicate assay plate was created at study initiation, processed immediately for cell viability by CTG, and these values represented 0% growth (day 0). […] Curve fittings were applied with a four parameter variable slope model and the following three calculations were determined using the curve fits. […]
(§2) The activity of Compound A to induce apoptosis or inhibit cell growth was assessed across a panel of DLBCL cell lines. DLBCL cell lines were subjected to a ten point dose response of Compound A (range 0.5 nM-10,000 nM, 3× dilution series) and assessed for cell growth inhibition by CTG or apoptosis by AnnexinV staining after three or four days.

DLBCL and FL cell lines = assay: Annexin V apoptosis assay (flow cytometry); format: cell-based, human
Method: Apoptosis induced by Compound A was measured by Annexin V staining as detected by flow cytometry. Compound A was diluted two-fold in duplicate to a starting concentration of 5 mM in 100% DMSO, and then serially diluted by three-fold in 100% DMSO in a 96 well plate format to achieve a 500× dose range of 5 mM to 0.76 μM. Serially-diluted Compound A was then further diluted 1:5 in sterile water to generate a 100× stock and finally diluted 1:100 into assay plate wells containing 200 μL of cells. The final concentration of DMSO was 0.2% in 200 μL in the assay wells and the dose range of Compound A was 10 μM to 1.5 nM. Cells were plated at 20,000-80,000 cells per well and assay plates were incubated after compound addition at 37° C. with 5% CO2 for 3 days in growth medium appropriate for each cell line. Control wells on all assay plates included 0.2% DMSO (0% apoptosis on day 3), 1 μM Velcade®, and 1 μM staurosporine (apoptosis control on day 3). Velcade® and staurosporine were used as benchmarks to ensure apoptosis could be achieved in each cell line.
After 72 to 96 hours, the cell compound mixture was transferred to a 96-well deep well conical bottom plate, centrifuged at 300×g, and cell pellets were re-suspended in DPBS. Plates were centrifuged at 300×g, supernatant was decanted, and cell pellets were re-suspended in 500 μl of pre-diluted LIVE/DEAD® Fixable Aqua Dead Cell Stain for 30 minutes at room temperature protected from light. Assay plates were centrifuged at 300×g, supernatant was decanted, and cell pellets were washed twice in 500 μL of DPBS containing 4% FBS. The washed pellets were re-suspended in 100 μL DPBS containing 4% FBS, 5 μL of Annexin V APC was added to each well, and assay plates were incubated for 30 minutes at room temperature, protected from light. Assay plates were washed twice with 500 μL of DPBS containing 4% FBS per well, and cell pellets were finally re-suspended in 250 μL of DPBS containing 4% FBS.
Flow cytometric sampling of 20,000 total events within a forward scatter and side-scatter gate (P1) per well were collected on a BD FACS Canto II instrument with DIVA software (San Jose, Calif.) using a high throughput screen auto-sampler for analysis of apoptosis. Within the P1 gate Annexin V^+/LIVE/DEAD^− and Annexin V^+/LIVE/DEAD^+ cells were digitally monitored. Single- or double-labeled cells were gated, percentages of Annexin V-positive cells in each population were recorded and combined, and data were extracted to a flow cytometry standard file (fcs). Mean percentages of Annexin V-positive cells were determined for the positive control (Velcade® and staurosporine at 1 μM) and negative wells (0.2% DMSO) to ensure the assay performed as expected for each cell line on each experimental day.
EC50 values for each compound were calculated based on log concentration of drug and percent Annexin V-positive cells using a four-parameter logistical fit equation in Prism 6.01 of the GraphPad software package. The percentage of apoptosis at EC50 was interpolated from the curve fit for each cell line. […] For an experiment to be valid, the % baseline apoptosis for a given cell line was required to be <35%.
as §2

Myc protein = assay: Reduction of Myc protein expression by Compound A; format: cell-based, human; details: subset of cell lines of FIG. 1, dose-dependent

SMILES: CC1(C)CCC(CN2CCN(c3ccc(C(=O)NS(=O)(=O)c4ccc(NCC5CCOCC5)c([N+](=O)[O-])c4)c(Oc4cnc5[nH]ccc5c4)c3)CC2)=C(c2ccc(Cl)cc2)C1 [venetoclax, reference compound]
- Cmax ([1]; ABT-199, 400 mg dose, cell culture media adjusted, read-out: CCM protein adjusted Cmax): 536 nM
- Cmax ([1]; human, plasma, 400 mg, ABT-199, 400 mg dose, cell culture media adjusted, read-out: CCM protein adjusted Cmax): 536 nM
- Cmax ([1]; human, plasma, 400 mg, ABT-199, 400 mg dose, read-out: exposures Cmax): 2300 nM
- CCM/buffer ([2]; free fraction, cell culture media): CCM/buffer 0.44%
- HP/buffer ([2]; free fraction, human plasma): HP/buffer 0.10%
- exposures Cmax [3]: 2000 ng/mL
- exposures Cmin [3]: 200 ng/mL

SMILES: Cc1noc(C)c1-c1cc(C(O)(c2ccccn2)c2ccccn2)c2nc(C3CC3)[nH]c2c1 [Compound A]
- pEC50 (DLBCL cell lines; DLBCL cell lines of FIG. 1, read-out: growth inhibition EC50 range across cell lines): 7.14 to 7.92
- pEC50 (DLBCL cell lines; mean over subset of cell lines of FIG. 1, read-out: growth inhibition mean EC50): 7.40
- pEC50 (DLBCL and FL cell lines; Homo sapiens, one responding cell line with EC50 above 113 nM): 5.60
- % apoptosis by 1 μM (DLBCL and FL cell lines; cell lines that did not undergo apoptosis (10 of 21; 8 of the FIG. 1 subset)): < 30%
- % Annexin V positive after treatment with 1 μM (DLBCL and FL cell lines; eight cell lines with EC50 <113 nM): > 30%
- pEC50 (DLBCL and FL cell lines; individual responding cell lines, three or four days): > 6.95 and 6.56 and 6.06
- lines refractory to Bcl-2 inhibition that undergo apoptosis (DLBCL and FL cell lines; of the 8 lines refractory to venetoclax (FIG. 4)): 6
- number of cell lines that underwent apoptosis (DLBCL and FL cell lines; of twenty-one DLBCL and FL cell lines, single agent): 11
- subset of DLBCL cell lines in which apoptosis was induced (DLBCL and FL cell lines; share of DLBCL cell lines): 58%
- pEC50 (Myc protein; Homo sapiens): ≥ 6.81
- pEC50 (Myc protein): 6.55
- CCM adjusted Cave ([1]; human, in vivo): 40 nM
- CCM adjusted Cmin ([1]; human, in vivo): 10 nM
- Cmax ([1]; human, in vivo, 4 mg, CCM protein adjusted CCM Cmax): 111 nM
- Cmax ([1]; human, in vivo, 4 mg, exposures Cmax): 279 ng/mL and 638 nM
- Cmax ([1]; human, in vivo, CCM adjusted Cmax): 90 nM
- Cmax ([1]; human, in vivo, protein adjusted Cmax concentration): ~113 nM
- CCM/buffer [2]: CCM/buffer 67%
- HP/buffer ([2]; human): HP/buffer 11.7
